Patent US20240208992A1, “MACROCYCLES AS CFTR MODULATORS” (Idorsia Pharmaceuticals Ltd, priority 2021, published 2024)

Biological target: human F508del-CFTR (Homo sapiens, UniProt P13569, DEL508-508)
Experiment: F508del-CFTR cell surface expression (corrector activity), DiscoveRx ß-galactosidase complementation chemiluminescence assay in recombinant U2OS cell line;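 further: U2OS cells co-expressing ProLink-tagged F508del-CFTR and a membrane-anchored enzyme acceptor, where more surface CFTR restores β-galactosidase activity measured by chemiluminescence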
Conditions: for EC50: EC50, F508del-CFTR cell surface expression, U2OS cells, 16h compound incubation, geomean values; for Emax: U2OS, in relation to Emax of corrector lumacaftor (=100%), arithmetic mean values

Sequence of human F508del-CFTR (P13569 with tags, fused parts or gaps DEL508-508): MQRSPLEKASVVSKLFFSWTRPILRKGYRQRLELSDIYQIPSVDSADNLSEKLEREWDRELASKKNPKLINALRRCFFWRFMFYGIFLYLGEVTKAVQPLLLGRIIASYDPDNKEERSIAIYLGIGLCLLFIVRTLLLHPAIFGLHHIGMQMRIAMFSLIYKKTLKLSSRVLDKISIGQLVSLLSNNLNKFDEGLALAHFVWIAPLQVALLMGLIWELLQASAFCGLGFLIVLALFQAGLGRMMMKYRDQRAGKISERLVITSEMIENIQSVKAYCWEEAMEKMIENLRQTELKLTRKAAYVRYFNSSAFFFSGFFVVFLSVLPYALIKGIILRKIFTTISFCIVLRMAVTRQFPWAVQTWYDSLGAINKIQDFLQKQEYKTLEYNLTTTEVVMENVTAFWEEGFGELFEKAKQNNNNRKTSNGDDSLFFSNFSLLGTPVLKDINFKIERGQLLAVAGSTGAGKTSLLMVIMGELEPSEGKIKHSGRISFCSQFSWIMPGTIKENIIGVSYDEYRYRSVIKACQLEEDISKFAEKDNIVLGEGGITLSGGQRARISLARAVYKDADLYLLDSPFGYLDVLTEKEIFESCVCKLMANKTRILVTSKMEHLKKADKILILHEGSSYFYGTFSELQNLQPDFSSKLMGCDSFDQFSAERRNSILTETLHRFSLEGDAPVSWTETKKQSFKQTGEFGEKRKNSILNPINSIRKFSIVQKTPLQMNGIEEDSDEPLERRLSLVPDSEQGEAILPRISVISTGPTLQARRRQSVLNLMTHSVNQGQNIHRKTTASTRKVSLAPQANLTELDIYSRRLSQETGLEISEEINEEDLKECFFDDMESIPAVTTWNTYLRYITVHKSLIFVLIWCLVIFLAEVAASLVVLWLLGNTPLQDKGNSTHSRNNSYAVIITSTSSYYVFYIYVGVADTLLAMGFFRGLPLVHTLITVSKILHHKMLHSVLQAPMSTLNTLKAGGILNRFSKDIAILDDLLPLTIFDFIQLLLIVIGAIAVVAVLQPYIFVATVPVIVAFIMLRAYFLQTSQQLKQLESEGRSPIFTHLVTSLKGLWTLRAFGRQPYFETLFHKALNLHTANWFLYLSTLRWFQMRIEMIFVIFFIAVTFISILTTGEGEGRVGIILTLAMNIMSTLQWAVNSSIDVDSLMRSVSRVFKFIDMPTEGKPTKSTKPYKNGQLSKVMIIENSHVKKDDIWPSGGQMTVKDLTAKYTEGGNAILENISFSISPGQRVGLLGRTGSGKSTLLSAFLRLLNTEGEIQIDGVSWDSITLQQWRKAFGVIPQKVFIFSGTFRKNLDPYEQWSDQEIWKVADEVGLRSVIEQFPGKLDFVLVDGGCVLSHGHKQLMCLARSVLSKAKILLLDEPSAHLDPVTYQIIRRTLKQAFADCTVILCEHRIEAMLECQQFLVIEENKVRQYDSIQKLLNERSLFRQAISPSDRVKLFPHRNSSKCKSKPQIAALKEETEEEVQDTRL

Compound | EC50 | Emax
COc1cccc(CCNC(=O)[C@@H]2CC(=O)N(C)[C@@H](CC(C)C)C(=O)N3CCN(C4CC4)C[C@@H]3C(=O)N[C@H](Cc3ccccc3)COc3ccc4nc(C)oc4c3C(=O)N2)c1 [Example 417, (8S,12S,18aR,21R)-21-benzyl-17-cyclopropyl-12-isobutyl-N-(3-methoxyphenethyl)-4,11-dimethyl-6,10,13,19-tetraoxo-6,7,8,9,10,11,12,13,16,17,18,18a,19,20,21,22-hexadecahydro-15H-oxazolo[4′,5′:5,6]benzo[1,2-p]pyrazino[2,1-f][1]oxa[4,7,10,14]tetraazacycloheptadecine-8-carboxamide] | 437 nM | 343%
CCOc1cccc(CCNC(=O)[C@@H]2CC(=O)N(C)[C@@H](CC(C)C)C(=O)N3CCN(C4CC4)C[C@@H]3C(=O)N[C@H](Cc3ccccc3)COc3ccc4nc(C)oc4c3C(=O)N2)c1 [Example 418, (8S,12S,18aR,21R)-21-benzyl-17-cyclopropyl-N-(3-ethoxyphenethyl)-12-isobutyl-4,11-dimethyl-6,10,13,19-tetraoxo-6,7,8,9,10,11,12,13,16,17,18,18a,19,20,21,22-hexadecahydro-15H-oxazolo[4′,5′:5,6]benzo[1,2-p]pyrazino[2,1-f][1]oxa[4,7,10,14]tetraazacycloheptadecine-8-carboxamide] | 276 nM | 259%
Cc1nc2ccc3c(c2o1)C(=O)N[C@H](C(=O)NCCc1cccc(OC(F)F)c1)CC(=O)N(C)[C@@H](CC(C)C)C(=O)N1CCN(C2CC2)C[C@@H]1C(=O)N[C@H](Cc1ccccc1)CO3 [Example 419, (8S,12S,18aR,21R)-21-benzyl-17-cyclopropyl-N-(3-(difluoromethoxy)phenethyl)-12-isobutyl-4,11-dimethyl-6,10,13,19-tetraoxo-6,7,8,9,10,11,12,13,16,17,18,18a,19,20,21,22-hexadecahydro-15H-oxazolo[4′,5′:5,6]benzo[1,2-p]pyrazino[2,1-f][1]oxa[4,7,10,14]tetraazacycloheptadecine-8-carboxamide] | 358 nM | 243%
Cc1nc2ccc3c(c2o1)C(=O)N[C@H](C(=O)NCCc1nc2c(s1)CCC2)CC(=O)N(C)[C@@H](CC(C)C)C(=O)N1CCN(C2CC2)C[C@@H]1C(=O)N[C@H](Cc1ccccc1)CO3 [Example 420, (8S,12S,18aR,21R)-21-benzyl-17-cyclopropyl-N-(2-(5,6-dihydro-4H-cyclopenta[d]thiazol-2-yl)ethyl)-12-isobutyl-4,11-dimethyl-6,10,13,19-tetraoxo-6,7,8,9,10,11,12,13,16,17,18,18a,19,20,21,22-hexadecahydro-15H-oxazolo[4′,5′:5,6]benzo[1,2-p]pyrazino[2,1-f][1]oxa[4,7,10,14]tetraazacycloheptadecine-8-carboxamide] | 437 nM | 231%
Cc1nc2ccc3c(c2o1)C(=O)N[C@H](C(=O)NCCc1ccc2c(c1)OCCO2)CC(=O)N(C)[C@@H](CC(C)C)C(=O)N1CCN(C2CC2)C[C@@H]1C(=O)N[C@H](Cc1ccccc1)CO3 [Example 421, (8S,12S,18aR,21R)-21-benzyl-17-cyclopropyl-N-(2-(2,3-dihydrobenzo[b][1,4]dioxin-6-yl)ethyl)-12-isobutyl-4,11-dimethyl-6,10,13,19-tetraoxo-6,7,8,9,10,11,12,13,16,17,18,18a,19,20,21,22-hexadecahydro-15H-oxazolo[4′,5′:5,6]benzo[1,2-p]pyrazino[2,1-f][1]oxa[4,7,10,14]tetraazacycloheptadecine-8-carboxamide] | 391 nM | 320%
Cc1nc2ccc3c(c2o1)C(=O)N[C@H](C(=O)NCCc1cccc(C(C)(F)F)c1)CC(=O)N(C)[C@@H](CC(C)C)C(=O)N(CCC1CCCCC1)CC(=O)N[C@H](Cc1ccccc1)CO3 [Example 422, (8R,14S,18S)-8-benzyl-12-(2-cyclohexylethyl)-N-(3-(1,1-difluoroethyl)phenethyl)-14-isobutyl-2,15-dimethyl-10,13,16,20-tetraoxo-7,8,9,10,11,12,13,14,15,16,17,18,19,20-tetradecahydrooxazolo[4′,5′:5,6]benzo[1,2-p][1]oxa[4,7,10,14]tetraazacycloheptadecine-18-carboxamide] | 192 nM | 193%
COc1cccc(CCNC(=O)[C@@H]2CC(=O)N(C)[C@@H](CC(C)C)C(=O)N3CCCC[C@@H]3C(=O)N[C@H](Cc3ccccc3)COc3ccc4c(cnn4C)c3C(=O)N2)c1 [Example 423, (8S,12S,18aR,21R)-21-benzyl-12-isobutyl-N-(3-methoxyphenethyl)-3,11-dimethyl-6,10,13,19-tetraoxo-6,7,8,9,10,11,12,13,16,17,18,18a,19,20,21,22-hexadecahydro-3H,15H-pyrido[2′,1′:6,7][1]oxa[4,7,10,14]tetraazacycloheptadecino[16,17-e]indazole-8-carboxamide] | 278 nM | 239%
COc1cccc(CCNC(=O)[C@@H]2CC(=O)N(C)[C@@H](CC(C)C)C(=O)N3CCOC[C@@H]3C(=O)N[C@H](Cc3ccccc3)COc3ccc4c(cnn4C)c3C(=O)N2)c1 [Example 424, (8S,12S,18aR,21R)-21-benzyl-12-isobutyl-N-(3-methoxyphenethyl)-3,11-dimethyl-6,10,13,19-tetraoxo-6,7,8,9,10,11,12,13,15,16,18,18a,19,20,21,22-hexadecahydro-3H-[1,4]oxazino[3′,4′:6,7][1]oxa[4,7,10,14]tetraazacycloheptadecino[16,17-e]indazole-8-carboxamide] | 831 nM | 235%
COc1cccc(CCNC(=O)[C@@H]2CC(=O)N(C)[C@@H](CC(C)C)C(=O)N3CCN(CC4CC4)C[C@@H]3C(=O)N[C@H](Cc3ccccc3)COc3ccc4nc(C)oc4c3C(=O)N2)c1 [Example 425, (8S,12S,18aR,21R)-21-benzyl-17-(cyclopropylmethyl)-12-isobutyl-N-(3-methoxyphenethyl)-4,11-dimethyl-6,10,13,19-tetraoxo-6,7,8,9,10,11,12,13,16,17,18,18a,19,20,21,22-hexadecahydro-15H-oxazolo[4′,5′:5,6]benzo[1,2-p]pyrazino[2,1-f][1]oxa[4,7,10,14]tetraazacycloheptadecine-8-carboxamide] | 348 nM | 364%
Cc1nc2ccc3c(c2o1)C(=O)N[C@H](C(=O)NCCc1cccc(OC(F)F)c1)CC(=O)N(C)[C@@H](CC(C)C)C(=O)N1CCN(CC2CC2)C[C@@H]1C(=O)N[C@H](Cc1ccccc1)CO3 [Example 426, (8S,12S,18aR,21R)-21-benzyl-17-(cyclopropylmethyl)-N-(3-(difluoromethoxy)phenethyl)-12-isobutyl-4,11-dimethyl-6,10,13,19-tetraoxo-6,7,8,9,10,11,12,13,16,17,18,18a,19,20,21,22-hexadecahydro-15H-oxazolo[4′,5′:5,6]benzo[1,2-p]pyrazino[2,1-f][1]oxa[4,7,10,14]tetraazacycloheptadecine-8-carboxamide] | 269 nM | 217%
